No end group written: not given here.
Assay: Solubility study of TAT-NR2B9c, visual analysis
Assay type: physicochemical
Details: pH 6.5, 35, 50, 75 and 100 mg/mL, t=0 and t=24 hours
Method: Due to the relatively low Tg temperatures that would likely require a longer lyophilization cycle to dry, we looked at a wider range of standard bulking agents and looked to reduce the fill volume into the container closure system so that there would be a reduced volume of liquid to lyophilize. […] Samples were visually analyzed at 35, 50, 75 and 100 mg/mL. All solutions were clear at t=0 and t=24 hours. […] A wide range of quantities may be required in a vial, but 270 mg would provide a […] dose for a 100 kg patient. Assuming the target reconstitution concentration for patient administration is still 20 mg/mL (but can be from 1 mg/ml to 100 mg/ml), then a 20-mL lyophilization vial containing 270 mg of TAT-NR2B9c can be used with a reconstitution volume of 13.5 mL. Therefore, optimal volumes of liquid for lyophilization of TAT-NR2B9c in the vial would be between 2.5 mL and 10 mL.

YGRKKRRQRRRKLSSIESDV [TAT-NR2B9c]
solubility, visual analysis (in Histidine+Trehalose): clear
solubility, visual analysis (in Histidine): clear
